The data set in a line: Particle Size Distribution by laser diffraction (Malvern Master Sizer 2000). In kind it is physicochemical. The following applies: eletriptan hydrobromide obtained by the Example 4 procedure, unmilled, cumulative volume size distribution. How it is done: As used herein, “Particle Size Distribution (PSD)” means the cumulative volume size distribution of equivalent spherical diameters as determined by laser diffraction in Malvern Master Sizer 2000 equipment or its equivalent using a particle size method containing Tegiloxan medium with sonication time of 10 seconds and stirrer speed of 2500 rpm. “Mean particle size distribution, i.e., (D50)” correspondingly, means the median of said particle size distribution. The important characteristics of the PSD are the (D90), which is the size, in microns, below which 90% of the particles by volume are found, and the (D50), which is the size, in microns, below which 50% of the particles by volume are found. Thus, a D90 or d(0.9) of less than 300 microns means that 90 volume-percent of the particles in a composition have a diameter less than 300 microns.

Where a name gives a salt, the structure may show the parent alone.

Consider three compounds from US20120027816A1, “HIGHLY PURE ELETRIPTAN OR A PHARMACEUTICALLY ACCEPTABLE SALT THEREOF SUBSTANTIALLY FREE OF ELETRIPTAN N-OXIDE IMPURITY” (ACTAVIS GROUP PTC EHF, priority 2009, published 2012).

Regarding `CN1CCC[C@@H]1Cc1c[nH]c2ccc(CCS(=O)(=O)c3ccccc3)cc12` [Example 4A, eletriptan hydrobromide], the “Particle Size Distribution d(0.1)” value was 12.07 microns, the “Particle Size Distribution d(0.5)” value is listed as 27.69 microns and the “Particle Size Distribution d(0.9)” value is given as 53.92 microns.
Turning to `CN1CCC[C@@H]1Cc1c[nH]c2ccc(CCS(=O)(=O)c3ccccc3)cc12` [Example 4B, eletriptan hydrobromide], the “Particle Size Distribution d(0.1)” value came to 9.99 microns, the “Particle Size Distribution d(0.5)” value was 20.85 microns and the “Particle Size Distribution d(0.9)” value came to 42.83 microns.
The matching figures for `CN1CCC[C@@H]1Cc1c[nH]c2ccc(CCS(=O)(=O)c3ccccc3)cc12` [Example 4C, eletriptan hydrobromide]: 13.58 microns, 27.25 microns and 50.91 microns.
